The record followed here is US12157730B2, “Heteroaryl derivative, method for producing same, and pharmaceutical composition comprising same as effective component” (VORONOI INC., priority 2019, dated 2024).

The target in this test is T1, Ba/F3 cell EGFR Exon20 ins NPH (Homo sapiens, UniProt P00533, INS773NPH).
T1 construct: expressed in transfected cells; host or cells: Ba/F3
Nature of the test: Ba/F3 cell proliferation suppression, EGFR Exon20 ins NPH. The note with it: GI50 class; Ba/F3 cell line with NPH inserted at Exon20 of EGFR; 72 hours. The format is cell-based. The method in brief: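 72 h compound exposure, 0.3 nM–50 um (12 points, 3:1 dilution in DMSO); viability by CellTiter-Glo luminescence. Ba/F3 medium: RPMI-1640, 10% FBS, 5 ng/ml IL-3, 1 ug/ml puromycin for transduced cells. GI50 vs control, n=3.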
For the compound `C=CC(=O)Nc1cc(Nc2cc(N3OCC[C@@H]3c3cccc(C)c3F)ncn2)c(OC)cc1N1CCC(N2CCN(C(C)=O)CC2)CC1` [compound 421, N-(2-(4-(4-acetylpiperazine-1-yl)piperidine-1-yl)-5-((6-((R)-3-(2-fluoro-3-methylphenyl)isoxazolidine-2-yl)pyrimidine-4-yl)amino)-4-methoxyphenyl) acrylamide], the “Ba/F3 (NPH) Activity” value is “A (GI50 < 50 nM)”.
With `C=CC(=O)Nc1cc(Nc2cc(N3OCC[C@@H]3c3ccc(F)cc3F)ncn2)c(OC)cc1N1CCC(N2C[C@@H]3C[C@H]2CN3CC)CC1` [compound 382, N-(5-((6-((R)-3-(2,4-difluorophenyl)isoxazolidine-2-yl)pyrimidine-4-yl)amino)-2-(4-((1S,4S)-5-ethyl-2,5-diazabicyclo [2.2.1]heptane-2-yl)piperidine-1-yl)-4-methoxyphenyl) acrylamide], the “Ba/F3 (NPH) Activity” value is “A (GI50 < 50 nM)”.
As for `C=CC(=O)Nc1cc(Nc2cc(N3OCC[C@@H]3c3ccc(F)c(Cl)c3)ncn2)c(OC)cc1N1CC[C@@H](N(C)C)C1` [compound 756, N-(5-((6-((R)-3-(3-chloro-4-fluorophenyl)isoxazolidine-2-yl)pyrimidine-4-yl)amino)-2-((R)-3-(dimethylamino)pyrolidine-1-yl)-4-methoxyphenyl) acrylamide], the entry is “A (GI50 < 50 nM)”; as for `C=CC(=O)Nc1cc(Nc2cc(N3OCC[C@@H]3c3cccc(Cl)c3C)ncn2)c(OC)cc1N(C)CCN(C)C` [compound 583, N-(5-((6-((R)-3-(3-chloro-2-methylphenyl)isoxazolidine-2-yl)pyrimidine-4-yl)amino)-2-((2-(dimethylamino)ethyl)(methyl)amino)-4-methoxyphenyl) acrylamide], “A (GI50 < 50 nM)”; as for `C=CC(=O)Nc1cc(Nc2cc(N3OCC[C@@H]3c3ccc(F)cc3F)ncn2)c(OC)cc1N1CCC(N2CCN(CCN(C)C)CC2)CC1` [compound 431, N-(5-((6-((R)-3-(2,4-difluorophenyl)isoxazolidine-2-yl)pyrimidine-4-yl)amino)-2-(4-(4-(2-(dimethylamino)ethyl)piperazine-1-yl)piperidine-1-yl)-4-methoxyphenyl) acrylamide], “A (GI50 < 50 nM)”.
Consider `C=CC(=O)Nc1cc(Nc2cc(N3OCC[C@@H]3c3ccc(C)nc3)ncn2)c(OC)cc1N1CCC(N2C[C@H]3C[C@@H]2CN3C)CC1` [Example 234, N-(4-methoxy-2-(4-((1R,4R)-5-methyl-2,5-diazabicyclo[2.2.1]heptane-2-yl)piperidine-1-yl)-5-((6-((R)-3-(6-methylpyridine-3-yl)isoxazolidine-2-yl)pyrimidine-4-yl)amino)phenyl)acrylamide], for which the “Ba/F3 (NPH) Activity” value is reported as “C (500 nM ≤ GI50 < 5000 nM)”.
As for `C=CC(=O)Nc1cc(Nc2cc(N3OCC[C@@H]3c3ccc(C)nc3)ncn2)c(OC)cc1N1CCN(C2CCCC2)CC1` [Example 225, N-(2-(4-cyclopentylpiperazine-1-yl)-4-methoxy-5-((6-((R)-3-(6-methylpyridine-3-yl)isoxazolidine-2-yl)pyrimidine-4-yl)amino)phenyl)acrylamide], the entry is “B (50 nM ≤ GI50 < 500 nM)”; as for `C=CC(=O)Nc1cc(Nc2cc(N3OCC[C@@H]3c3cc(F)ccc3F)ncn2)c(OC)cc1N1CCC(N2CCN(C3CCCC3)CC2)CC1` [Example 100, N-(2-(4-(4-cyclopentylpiperazine-1-yl)piperidine-1-yl)-5-((6-((R)-3-(2,5-difluorophenyl)isoxazolidine-2-yl)pyrimidine-4-yl)amino)-4-methoxyphenyl) acrylamide], “A (GI50 < 50 nM)”.
With `C=CC(=O)Nc1cc(Nc2cc(N3OCC[C@@H]3c3cc(F)cc(Cl)c3F)ncn2)c(OC)cc1N1CCC(N2CCN(C3CC3)CC2)CC1` [compound 938, N-(5-((6-((R)-3-(3-chloro-2,5-difluorophenyl)isoxazolidine-2-yl)pyrimidine-4-yl)amino)-2-(4-(4-cyclopropylpiperazine-1-yl)piperidine-1-yl)-4-methoxyphenyl) acrylamide], the “Ba/F3 (NPH) Activity” value is given as “A (GI50 < 50 nM)”.
As for `C=CC(=O)Nc1cc(Nc2cc(N3OCC[C@@H]3c3cccc(C#N)c3)ncn2)c(OC)cc1N1CCC(O)CC1` [compound 390, N-(5-((6-((R)-3-(3-cyanophenyl)isoxazolidine-2-yl)pyrimidine-4-yl)amino)-2-(4-hydroxypiperidine-1-yl)-4-methoxyphenyl) acrylamide], the entry is “B (50 nM ≤ GI50 < 500 nM)”; as for `C=CC(=O)Nc1cc(Nc2cc(N3OCC[C@@H]3c3ccc(F)c(F)c3)ncn2)c(OC)cc1N(C)CCN(C)C` [compound 457, N-(5-((6-((R)-3-(3,4-difluorophenyl)isoxazolidine-2-yl)pyrimidine-4-yl)amino)-2-((2-(dimethylamino)ethyl)(methyl)amino)-4-methoxyphenyl) acrylamide], “A (GI50 < 50 nM)”.
On to `C=CC(=O)Nc1cc(Nc2cc(N3OCC[C@@H]3c3cc(F)ccc3F)ncn2)c(OC)cc1N1CCC(N2CCN(C)[C@H](C)C2)CC1` [compound 851, N-(5-((6-((R)-3-(2,5-difluorophenyl)isoxazolidine-2-yl)pyrimidine-4-yl)amino)-2-(4-((R)-3,4-dimethylpiperazine-1-yl)piperidine-1-yl)-4-methoxyphenyl) acrylamide], for which the “Ba/F3 (NPH) Activity” value was “A (GI50 < 50 nM)”.
On to `C=CC(=O)Nc1cc(Nc2cc(N3OCC[C@@H]3c3ccc(C)nc3)ncn2)c(OC)cc1N1CCN(C2COC2)CC1` [Example 218, N-(4-methoxy-5-((6-((R)-3-(6-methylpyridine-3-yl)isoxazolidine-2-yl)pyrimidine-4-yl)amino)-2-(4-(oxetane-3-yl)piperazine-1-yl)phenyl)acrylamide], for which the “Ba/F3 (NPH) Activity” value is “B (50 nM ≤ GI50 < 500 nM)”.
As for `C=CC(=O)Nc1cc(Nc2cc(N3OCC[C@@H]3Cc3cccc(Cl)c3Cl)ncn2)c(OC)cc1N1CCC(N2C[C@@H](C)O[C@@H](C)C2)CC1` [compound 1010, N-(5-((6-((S)-3-(2,3-dichlorobenzyl)isoxazolidine-2-yl)pyrimidine-4-yl)amino)-2-(4-((2S,6R)-2,6-dimethylmorpholino)piperidine-1-yl)-4-methoxyphenyl) acrylamide], the entry is “A (GI50 < 50 nM)”; as for `C=CC(=O)Nc1cc(Nc2cc(N3OCC[C@@H]3c3cccc(Cl)c3)ncn2)c(OC)cc1N1CCC(N2CCN(C3CCC3)CC2)CC1` [Example 185, N-(5-((6-((R)-3-(3-chlorophenyl)isoxazolidine-2-yl)pyrimidine-4-yl)amino)-2-(4-(4-cyclobutylpiperazine-1-yl)piperidine-1-yl)-4-methoxyphenyl) acrylamide], “A (GI50 < 50 nM)”.
`C=CC(=O)Nc1cc(Nc2cc(N3OCC[C@@H]3c3ccc(F)c(F)c3)ncn2)c(OC)cc1N1CCC(N2CCN(C3CC3)CC2)CC1` [Example 161, N-(2-(4-(4-cyclopropylpiperazine-1-yl)piperidine-1-yl)-5-((6-((R)-3-(3,4-difluorophenyl)isoxazolidine-2-yl)pyrimidine-4-yl)amino)-4-methoxyphenyl) acrylamide]: the “Ba/F3 (NPH) Activity” value is given as “A (GI50 < 50 nM)”.
As for `C=CC(=O)Nc1cc(Nc2cc(N3OCC[C@@H]3c3c(F)ccc(F)c3Cl)ncn2)c(OC)cc1N1CCC(N2CCN(C3CC3)[C@@H](C)C2)CC1` [compound 934, N-(5-((6-((R)-3-(2-chloro-3,6-difluorophenyl)isoxazolidine-2-yl)pyrimidine-4-yl)amino)-2-(4-((S)-4-cyclopropyl-3-methylpiperazine-1-yl)piperidine-1-yl)-4-methoxyphenyl) acrylamide], the entry is “A (GI50 < 50 nM)”; as for `C=CC(=O)Nc1cc(Nc2cc(N3OCC[C@@H]3Cc3cccc(N(C)C)c3)ncn2)c(OC)cc1N1CCC(N2C[C@@H]3C[C@H]2CO3)CC1` [compound 1048, N-(2-(4-((1S,4S)-2-oxa-5-azabicyclo [2.2.1]heptane-5-yl)piperidine-1-yl)-5-((6-((S)-3-(3-(dimethylamino)benzyl)isoxazolidine-2-yl)pyrimidine-4-yl)amino)-4-methoxyphenyl) acrylamide], “B (50 nM ≤ GI50 < 500 nM)”; as for `C=CC(=O)Nc1cc(Nc2cc(N3OCC[C@@H]3c3c(F)cccc3F)ncn2)c(OC)cc1N1CCC(N2CCN(C3CC3)[C@@H](C)C2)CC1` [Example 136, N-(2-(4-((S)-4-cyclopropyl-3-methylpiperazine-1-yl)piperidine-1-yl)-5-((6-((R)-3-(2,6-difluorophenyl)isoxazolidine-2-yl)pyrimidine-4-yl)amino)-4-methoxyphenyl) acrylamide], “B (50 nM ≤ GI50 < 500 nM)”.
`C=CC(=O)Nc1cc(Nc2cc(N3OCC[C@@H]3c3cc(F)ccc3F)ncn2)c(OC)cc1-n1ccnc1C` [compound 330, N-(5-((6-((R)-3-(2,5-difluorophenyl)isoxazolidine-2-yl)pyrimidine-4-yl)amino)-4-methoxy-2-(2-methyl-1H-imidazole-1-yl)phenyl)acrylamide]: the “Ba/F3 (NPH) Activity” value was “A (GI50 < 50 nM)”.
As for `C=CC(=O)Nc1cc(Nc2cc(N3OCC[C@@H]3c3ccc(F)cc3F)ncn2)c(OC)cc1N1CCOCC1` [compound 325, N-(5-((6-((R)-3-(2,4-difluorophenyl)isoxazolidine-2-yl)pyrimidine-4-yl)amino)-4-methoxy-2-morpholinophenyl) acrylamide], the entry is “A (GI50 < 50 nM)”; as for `C=CC(=O)Nc1cc(Nc2cc(N3OCC[C@@H]3c3cccc(F)c3Cl)ncn2)c(OC)cc1N1CCC(N2C[C@@H]3C[C@H]2CO3)CC1` [compound 640, N-(2-(4-((1S,4S)-2-oxa-5-azabicyclo[2.2.1]heptane-5-yl)piperidine-1-yl)-5-((6-((R)-3-(2-chloro-3-fluorophenyl)isoxazolidine-2-yl)pyrimidine-4-yl)amino)-4-methoxyphenyl) acrylamide], “A (GI50 < 50 nM)”.
